Test results: ChEMBL document CHEMBL6092216, “Development of α-Helical Antimicrobial Peptides with Imperfect Amphipathicity for Superior Activity and Selectivity” (J Med Chem, 2024)
Activity calls are given as the source filed them. No cut-off for these calls is given here. Where a SMILES comes first, the peptide text is derived from it. [ ]: non-standard residue; d: D form. Hmpa(2S,3S) = CC[C@H](C)[C@H](O)C(=O)O

What was measured:
[1] = tested on: Cell membrane; assay: Induction of membrane permeabilization in Staphylococcus aureus ATCC 6538 assessed as increase in fluorescence intensity at 5XMIC measured for 90 mins by propidium iodide staining based fluorescence analysis; format: subcellular
[2] = tested on: Staphylococcus aureus; assay: Induction of bacterial cell rupture in Staphylococcus aureus ATCC 6538 assessed as cell disruption at 5XMIC measured after 30 mins by scanning electron microscopy; format: functional, organism-based
[3] = tested on: Staphylococcus aureus; assay: Induction of bacterial cell rupture in Staphylococcus aureus ATCC 6538 assessed as cell disruption at 5XMIC measured after 30 mins by transmission electron microscopy; format: functional, organism-based
[4] = tested on: Staphylococcus aureus; assay: Bactericidal activity against Staphylococcus aureus ATCC 6538 assessed as elimination of bacterial cells at 5X to 10X MIC by killing kinetic assay; format: functional, organism-based
[5] = tested on: Staphylococcus aureus; assay: Ratio of MIC for bactericidal activity against Staphylococcus aureus ATCC 6538 measured after 35 passages to MIC for bactericidal activity against Staphylococcus aureus ATCC 6538 measured after short period of drug exposure; format: functional
[6] = tested on: Staphylococcus aureus; assay: Antibacterial activity against Staphylococcus aureus ATCC 6538 infected in BALB/c mouse assessed as inhibition of bacterial colonization on wounded skin at 0.5 mg/ml applied on skin and measured after 2 hrs; format: functional, organism-based
[7] = tested on: Acinetobacter baumannii; assay: Antibacterial activity against Acinetobacter baumannii ATCC 19606 assessed as inhibition of bacterial growth by tube microdilution assay; format: functional
[8] = tested on: Staphylococcus aureus; assay: Antibacterial activity against Staphylococcus aureus ATCC 6538 assessed as inhibition of bacterial growth by tube microdilution assay; format: functional
[9] = tested on: Erythrocyte; assay: Induction of hemolysis in mouse red blood cells at 1.56 to 100 ug/ml incubated for 1 hr; format: toxicity, cell-based; settings: dose 1.56-100 µg/ml
[10] = tested on: HEK-293T; assay: Cytotoxicity against HEK293T cells assessed as effect on cell viability at 3.13 to 400 ug/ml incubated for 24 hrs by CCK-8 assay; format: toxicity, cell-based; settings: human, dose 3.13-400 µg/ml
[11] = tested on: HaCaT; assay: Cytotoxicity against human HaCaT cells assessed as effect on cell viability at 3.13 to 400 ug/ml incubated for 24 hrs by CCK-8 assay; format: toxicity, cell-based; settings: dose 3.13-400 µg/ml

Compound | MIC [7] | MIC [8] | other results
CN[C@H](CC(C)C)C(=O)N[C@H]1C(=O)N[C@@H](CC(N)=O)C(=O)N[C@H]2C(=O)N[C@H]3C(=O)N[C@H](C(=O)N[C@H](C(=O)O)c4cc(O)cc(O)c4-c4cc3ccc4O)[C@H](O)c3ccc(c(Cl)c3)Oc3cc2cc(c3O[C@@H]2O[C@H](CO)[C@@H](O)[C@H](O)[C@H]2O[C@H]2C[C@](C)(N)[C@H](O)[C@H](C)O2)Oc2ccc(cc2Cl)[C@H]1O [VANCOMYCIN] |  |  | Activity [1]: inactive; Activity [2]: Active; Limited Cell Disruption With Most Cells Remain Intact And Unaffected; Activity [3]: Active; Limited Cell Disruption With Most Cells Remain Intact And Unaffected; Activity [4]: Active; Slow Killing Rate; Ratio [5]: 4; Activity [6]: Active
H-IKKVKKVKKAIKEGIKKG-OH | 75 µg/mL | 75 µg/mL | 
H-SGGGSNIAHGPGGRRHIA-OH | > 200 µg/mL | > 200 µg/mL | 
H-RGIKKFIKKVKKVKKAIK-OH | 2.34 µg/mL | 2.34 µg/mL | 
H-KKFIKKVKKVKKAIKEGI-OH | 37.5 µg/mL | 75 µg/mL | 
H-IKKFIKKVKKVKKAIKEG-OH | 37.5 µg/mL | 75 µg/mL | Activity [9]: Non-toxic; Activity [10]: Non-toxic; Activity [11]: Non-toxic
H-IKKFIKKVKKVKKAIK-OH | 4.68 µg/mL | 4.68 µg/mL | Activity [9]: Non-toxic; Activity [10]: Non-toxic; Activity [11]: Non-toxic
H-FIKKVKKVKKAIKEGIKK-OH | 37.5 µg/mL | 75 µg/mL | 
CC[C@H](C)[C@H](N)C(=O)N[C@@H](CCCCN)C(=O)N[C@@H](CCCCN)C(=O)NCC(=O)O[C@H](C(=O)N[C@@H](CCCCN)C(=O)N[C@@H](CCCCN)C(=O)N[C@@H](CC(C)C)C(=O)N[C@@H](CC(C)C)C(=O)O)[C@@H](C)CC (H-IKKG[Hmpa(2S,3S)]KKLL-OH) | > 200 µg/mL | > 200 µg/mL | Activity [9]: Non-toxic; Activity [10]: Non-toxic; Activity [11]: Non-toxic
H-KFIKKVKKVKKAIKEGIK-OH | 37.5 µg/mL | 75 µg/mL | 
H-GIKKFIKKVKKVKKAIKE-OH | 37.5 µg/mL | 75 µg/mL | 
CC[C@H](C)[C@H](NC(=O)CN)C(=O)N[C@@H](CCCCN)C(=O)N[C@@H](CCCCN)C(=O)NCC(=O)O[C@H](C(=O)N[C@@H](CCCCN)C(=O)N[C@@H](CCCCN)C(=O)N[C@@H](CC(C)C)C(=O)N[C@@H](CC(C)C)C(=O)O)[C@@H](C)CC (H-GIKKG[Hmpa(2S,3S)]KKLL-OH) | > 200 µg/mL | > 200 µg/mL | 
H-RRGIKKFIKKVKKVKKAIKEGIKKGIKKLL-OH | 9.37 µg/mL | 9.37 µg/mL | 
